Measurements from article PMC11292009, “Mapping protein binding sites by photoreactive fragment pharmacophores” (Communications Chemistry, 2024).
“And” between values parts separate entries of the source, which are not always exact repeats. Equal entries are not always repeated.

Tests used:
STAT5B NTD = target: T1, STAT5B NTD (Homo sapiens, UniProt P51692); assay: Microscale thermophoresis (MST), without irradiation; type: binding; conditions: for ΔFnorm: Fnorm - Unbound value, Php097 concentration [log; for Fnorm: MST raw data, PhP097 concentration [log
T1 construct: His-SUMO (N, cleaved yes); made in house; host or cells: E. coli BL21 RILP
T1 sequence (P51692 1-123): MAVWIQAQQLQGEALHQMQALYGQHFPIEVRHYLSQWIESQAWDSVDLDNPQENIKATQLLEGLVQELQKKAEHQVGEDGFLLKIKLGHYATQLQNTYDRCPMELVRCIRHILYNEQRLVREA
Method: For the microscale thermophoresis (MST) studies, we prepared 16 two-fold serial dilutions of compounds starting from 500 μM. Titration series were prepared that contained 10 μL of compounds’ solutions of varying concentrations and 10 μL RED-NHS 2nd Generation labeled STAT5B NTD with a concentration of 168 nM for compound PhP097, and a concentration of 84 nM for compound PhP065. Final buffer composition included 1X PBS containing 0.5% DMSO. All measurements were taken in Premium Coated Capillaries on a Monolith NT.115 instrument (NanoTemper Technologies, Munich, Germany) using 80% infrared laser power for compound PhP097, 60% infrared laser power for compound PhP065, and an LED excitation source with λ = 650 nm at a temperature of 25 °C. Results were expressed as the mean of two separate experiments, with three technical replicates each. GraphPad Prism 9.5.1 software was used to fit the data and to determine the KD values.

MOLM-13 cells = assay: CellTiter-Blue cell viability assay, MOLM-13; type: cell-based; conditions: Homo sapiens, MOLM-13, 72 h
Method: MV4-11 and MOLM-13 cell lines were purchased from DSMZ (Braunschweig, Germany), and grown at 37 °C and 5% CO2 in RPMI 1640 medium (Gibco^TM, Thermo Fisher Scientific). Media were supplemented with 10% fetal calf serum (FCS), 10 U/mL penicillin, 10 µg/mL streptomycin and 2 mM L-glutamine (all Gibco^TM, Thermo Fisher Scientific).
To determine the IC50 of the selected compounds on the cell lines, CellTiter-Blue® cell viability assay (Promega) was performed. For this, cells were seeded in 96-well flat bottom plates at a cell density of 10,000 cells/well. Cells were treated in triplicates with the compound of interest at various concentrations or with 10 μM Bortezomib (S1013; Selleck Chemicals, Houston, TX, USA) as a positive control. Cell viability of treated cell lines was measured using CellTiter-Blue® after 72 h incubation. Plates were measured using a GloMax® plate reader (Promega) and IC50 values were determined by non-linear regression using the GraphPad Prism 9.1.1 (GraphPad Software, Inc.) and the data are reported as mean values ± SEM.

[1] = µM] -0.0102833, runs/replicates

- Kd (STAT5B NTD; MST, without irradiation, 25 °C): 18.1 µM
- IC50 (MOLM-13 cells): 68.2 µM
Structure (SMILES): CC1(CCC(=O)NCCc2csc(-c3ccccc3)n2)N=N1 [PhP097, N1=NC1(C)CCC(=O)NCCc2csc(n2)-c3ccccc3]
- ΔFnorm (STAT5B NTD; µM] 0.591766, runs/replicates): 5.764 ‰ and 7.778 ‰ and 6.699 ‰ and -1.199 ‰ and -1.302 ‰ and -4.005 ‰
- ΔFnorm (STAT5B NTD; µM] 0.89279, runs/replicates): -7.395 ‰ and -5.5397 ‰ and -5.711 ‰ and 0.2163 ‰ and 4.053 ‰ and 0.9615 ‰
- ΔFnorm (STAT5B NTD; µM] 1.19382, runs/replicates): -4.091 ‰ and -1.8497 ‰ and -1.165 ‰ and -5.318 ‰ and -5.614 ‰ and -5.274 ‰
- ΔFnorm (STAT5B NTD; µM] 1.49485, runs/replicates): -4.445 ‰ and -4.535 ‰ and -5.873 ‰ and -8.126 ‰ and -4.727 ‰ and -7.108 ‰
- ΔFnorm (STAT5B NTD; µM] 1.79588, runs/replicates): -8.587 ‰ and -6.363 ‰ and -6.457 ‰ and -11.6433 ‰ and -8.368 ‰ and -12.1062 ‰
- ΔFnorm (STAT5B NTD; µM] 2.09691, runs/replicates): -14.77 ‰ and -11.6203 ‰ and -10.8651 ‰ and -10.9408 ‰ and -5.699 ‰ and -12.7461 ‰
- ΔFnorm (STAT5B NTD; µM] 2.39794, runs/replicates): -1.7884 ‰ and 0.2047 ‰ and 0.7983 ‰ and -10.6185 ‰ and -13.0284 ‰ and -12.5258 ‰
- ΔFnorm (STAT5B NTD; [1]): 4.6455 ‰ and 5.66 ‰ and 7.637 ‰ and -9.481 ‰ and -8.884 ‰ and -7.417 ‰
- ΔFnorm (STAT5B NTD; µM] -0.311313, runs/replicates): -5.603 ‰ and -3.243 ‰ and -1.459 ‰ and 3.271 ‰ and 2.052 ‰ and 1.015 ‰
- ΔFnorm (STAT5B NTD; µM] -0.913284, runs/replicates): 4.1952 ‰ and 9.04 ‰ and 7.8226 ‰ and -0.03038 ‰ and -2.726 ‰ and -0.9924 ‰
- ΔFnorm (STAT5B NTD; µM] -1.5157, runs/replicates): 0.7011 ‰ and -0.01526 ‰ and 1.427 ‰ and -0.3532 ‰
- Fnorm (STAT5B NTD; µM] 0.591766, runs/replicates): 720.204 ‰ and 719.528 ‰ and 720.009 ‰ and 710.951 ‰ and 712.028 ‰ and 710.045 ‰
- Fnorm (STAT5B NTD; µM] 0.89279, runs/replicates): 707.045 ‰ and 706.21 ‰ and 707.599 ‰ and 712.366 ‰ and 717.383 ‰ and 715.011 ‰
- Fnorm (STAT5B NTD; [1]): 719.086 ‰ and 717.41 ‰ and 720.947 ‰ and 702.669 ‰ and 704.446 ‰ and 706.633 ‰
- Fnorm (STAT5B NTD; µM] -0.311313, runs/replicates): 708.837 ‰ and 708.507 ‰ and 711.851 ‰ and 715.421 ‰ and 715.382 ‰ and 715.065 ‰
- Fnorm (STAT5B NTD; µM] -0.913284, runs/replicates): 718.635 ‰ and 720.79 ‰ and 721.133 ‰ and 712.12 ‰ and 710.604 ‰ and 713.058 ‰
- Fnorm (STAT5B NTD; µM] -1.5157, runs/replicates): 715.141 ‰ and 711.735 ‰ and 714.737 ‰ and 711.797 ‰ and 713.155 ‰ and 719.464 ‰
